In US20010031268A1, “Antigen preparations” (priority 1999, published 2001):

How the values were obtained:
[1] = test system: E. coli; conditions: low inoculum levels (50-1000 bacterial cells/ml)
[2] = test system: Neisseria; conditions: no catechol inducer
[3] = test system: Neisseria meningitidis strain B16B6; test: Growth of Neisseria meningitidis culture (optical density at 600 nm) with and without norepinephrine bitartrate; type: cell-based; conditions: 100 micromolar added at 20 hours post-inoculation; MEM with NEAA, Vitox (iron) and ABS (iron chelator); OD 600 nm until 30 hours
Experimental: A culture of Neisseria meningitidis strain B16B6 (obtainable from the National Collection of Type Cultures, PHLS, Colindale, London, UK) was grown overnight at 37 deg C. on a GC agar plate (Oxoid) containing 2% Vitox (Oxoid). Vitox is a defined growth supplement suitable for enrichment of culture media and contains, amongst other ingredients, a source of iron.
At the end of incubation, about 20 bacterial colonies were harvested from the GC agar plate and suspended in 100 microliters of sterile phosphate-buffered saline (PBS; Gibco). The resulting bacterial suspension was then grown at 37 deg C for 4 hours on a GC agar plate containing 2% Vitox. At the end of incubation, the agar plate was flooded with 2 ml of sterile PBS and the bacterial suspension transferred into a sterile container. Optical density of the suspension was then determined at 600 nm. An optical density at 600 nm of 0.1 is equivalent to about 2×10^8 cfu/ml of Neisseria meningitidis. […]
The test medium was incubated at 37 deg C. with shaking at 180 rpm. The optical density of the culture was measured at 600 nm at 2, 4 and 20 hours post-inoculation of the media.
At 20 hours post-inoculation, the test sample was divided into halves. […] Both half-samples were then further incubated at 37 deg C., and optical density at 600 nm measured every 2 hours until 30 hours post-inoculation. […]

[4] = test system: Neisseria meningitidis; test: SDS-PAGE protein analysis of bacteria grown with and without norepinephrine bitartrate; type: cell-based
Text: Samples of “test” bacteria grown as described above in MEM containing NEAA, iron chelator (ABS) and iron (Vitox) both in the presence and absence of norepinephrine bitartrate were taken. The samples were centrifuged to pellet bacteria. The bacterial pellets obtained were resuspended in 50 microliters of TE buffer (Sambrook et al: 1989, Molecular cloning: A Laboratory Manual, Cold Spring Harbour Laboratory Press, N.Y.) and 200 microliters of SDS-PAGE solubilisation buffer added (Sambrook et al: as above). The mixture was then heated at 70 deg C to solubilize proteins. Samples and appropriate molecular weight markers were then run on 10% and 12% SDS-polyacrylamide gels. The gels were then stained with Coomassie blue stain, according to a standard method, and protein bands observed.
Culture was carried out in MEM medium containing NEAA, iron (Vitox) and an iron chelator (ABS), either with norepinephrine bitartrate added to the culture (lane 1), or without norepinephrine bitartrate (lane 2). Molecular weight markers (kD) are also shown (lane M).

Row | Compound | growth of E. coli under low iron conditions and low inoculum levels [1] | growth of Neisseria under low-iron conditions [2] | growth of a culture of Neisseria meningitidis [3] | newly expressed or overexpressed further proteins (SDS-PAGE) ([4]; compared with bacteria cultured without norepinephrine) | proteins expressed only when grown in the presence of the inducer (SDS-PAGE, Coomassie) ([4]; compared with bacteria grown in the absence of norepinephrine bitartrate, MEM with NEAA, Vitox, ABS) | over-expression of protein in comparison to bacteria grown without the inducer (SDS-PAGE) ([4]; compared with bacteria grown without norepinephrine bitartrate)
1 | O=C(O)C(NCCNC(C(=O)O)c1ccccc1O)c1ccccc1O (stereo not drawn) [EDDA, ethylene diamine di-ortho-hydroxyphenyl-acetic acid] | nor to a lesser extent do they allow good growth | do not reliably allow good growth |  |  |  | 
2 | NC[C@H](O)c1ccc(O)c(O)c1 [norepinephrine bitartrate] |  |  | accelerated growth | newly expressed or overexpressed further proteins with molecular weights of about 250 kDa, about 80 kDa, and about 28 kDa | expressed proteins, including proteins with molecular weights of about 100 KDa and about 55 KDa | over-expression of an approximately 20 KDa protein
